Laboratory results reported in PubChem BioAssay (NCI).
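Protocol summary: plate cells (96-well), add compound at 5 concentrations, incubate 48 h, interpolate endpoints linearly. Abbreviation: GI50, concentration required for 50% inhibition of growth. TGI: concentration producing complete growth inhibition.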

What was measured:
Experiment in all cases: growth of human tumour cells (NCI), 48 h
CCRF-CEM leukemia = system: CCRF-CEM leukemia
RPMI-8226 leukemia = system: RPMI-8226 leukemia
TK-10 renal = system: TK-10 renal
A549 NSCLC = system: A549 NSCLC
NCI-H522 lung = system: NCI-H522 lung
SNB-75 CNS = system: SNB-75 CNS
HT29 colon = system: HT29 colon
SR leukemia = system: SR leukemia
MALME-3M melanoma = system: MALME-3M melanoma
NCI-H23 lung = system: NCI-H23 lung

SMILES | TGI (CCRF-CEM leukemia) [µM] | TGI (RPMI-8226 leukemia) [µM] | TGI (TK-10 renal) [µM] | TGI (A549 NSCLC) [µM] | TGI (NCI-H522 lung) [µM] | TGI (SNB-75 CNS) [µM] | TGI (HT29 colon) [µM] | TGI (SR leukemia) [µM] | TGI (MALME-3M melanoma) [µM] | TGI (NCI-H23 lung) [µM] | GI50 (CCRF-CEM leukemia) [µM] | GI50 (RPMI-8226 leukemia) [µM] | GI50 (TK-10 renal) [µM] | GI50 (A549 NSCLC) [µM] | GI50 (NCI-H522 lung) [µM] | GI50 (SNB-75 CNS) [µM] | GI50 (HT29 colon) [µM] | GI50 (SR leukemia) [µM] | GI50 (MALME-3M melanoma) [µM] | GI50 (NCI-H23 lung) [µM]
CCOC(=O)C1(CC(=O)O)CCCC1=O (stereo not given) | > 100 | > 100 | > 100 | > 100 | > 100 | > 100 | > 100 | > 100 | > 100 | > 100 | – | – | – | – | – | – | – | – | – | –
CN(C)c1ccc(C(=S)c2ccc(N(C)C)cc2)cc1 | > 100 | > 100 | > 100 | > 100 | 9.31 | 40.2 | > 100 | 92.6 | > 100 | > 100 | 6.64 | 9.89 | 13.8 | 7.81 | 2.56 | 5.28 | 3.79 | 3.75 | 5.5 | 7.28
CC/C=C\C[C@H]1C/C=C2/C(=O)C=C[C@H]2C/C=C\CCCC(=O)O1 | 15.3 | 4.82 | 8.01 | 10.3 | 7.21 | 8.74 | 6.15 | 21.8 | 17.4 | 9.92 | 1.67 | 1.59 | 2.54 | 2.66 | 1.98 | 1.56 | 1.85 | 1.34 | 7.81 | 2.15
C[C@H]1CCC/C=C/C2CC(OC(=O)CN(C)C)CC2C(OC(=O)CN(C)C)/C=C/C(=O)O1 (stereo not given in full) | > 40.6 | > 81.4 | 17.9 | > 100 | 2.83 | – | 3.8 | 10.1 | 0.371 | 1.92 | 0.647 | 0.712 | 0.318 | 0.68 | 0.658 | 0.0567 | 0.342 | 0.38 | 0.171 | 0.359
C[C@@H]1CC[C@H]2[C@@H](C)C(O)O[C@@H]3O[C@]4(C)CC[C@@H]1[C@]32OO4 (stereo not given in full) | 35 | – | 9.64 | 13.5 | 3.29 | 15.6 | 13.5 | 0.898 | > 66.1 | 10.7 | 0.568 | 0.143 | 0.854 | 1.74 | 0.329 | 2.54 | 0.634 | 0.199 | 1.54 | 0.442
C[C@@H](Nc1nc(N[C@H](C)C(F)(F)F)nc(-c2cccc(Cl)n2)n1)C(F)(F)F | > 100 | > 100 | > 100 | > 100 | > 100 | 44.3 | > 100 | > 100 | > 100 | > 100 | > 100 | > 100 | 39.9 | 50.3 | 30 | 15.8 | > 100 | > 100 | 60.2 | 54
COc1ccc(-c2nn(-c3cccc(Cl)c3)cc2/C=C2\NC(=S)N(c3ccc(Cl)cc3)C2=O)cc1 | 11 | 15.9 | 16 | 9.73 | 6.21 | 4.47 | 10.6 | 7.29 | 11.3 | 9.23 | 2.98 | 3.53 | 6.37 | 3.35 | 1.98 | 0.95 | 4.99 | 3.59 | 5.03 | 3.78
COc1ccc(-n2cc(-c3cc(OC)c(OC)c(OC)c3)nc2SCc2ccc(Cl)cc2)cc1OC | > 100 | > 100 | > 100 | > 100 | > 100 | > 100 | > 100 | > 100 | > 100 | > 100 | > 100 | > 100 | > 100 | 53.2 | 41.2 | 9.82 | > 100 | > 100 | > 100 | > 100
C/C(=N\Nc1ccccc1)c1sc(-c2nc(C)c(/C(C)=N/Nc3ccccc3)s2)nc1C | > 100 | > 100 | > 100 | > 35.8 | 48.3 | > 77.1 | 26.2 | > 100 | 51 | > 100 | – | – | – | – | – | – | – | – | – | –
O=C1C=CC2(CCCCCCC2=O)CC1 (stereo not given) | > 100 | > 100 | > 100 | > 100 | > 100 | > 100 | > 100 | > 100 | > 100 | – | – | – | – | – | – | – | – | – | – | –
CCCCCCCCCCC(=O)CCCCCCC(=O)O | 73.8 | 32.3 | > 100 | 32.2 | 50.5 | > 100 | 36.1 | 44.2 | 45 | 98.4 | – | – | – | – | – | – | – | – | – | –
COc1ccccc1-n1cnc(N)c1C(=O)c1cc(OC)c(OC)c(OC)c1 | > 100 | 13.3 | > 100 | > 100 | > 100 | 9.3 | > 100 | > 100 | > 100 | > 100 | 2.69 | 2.42 | 5.21 | 4.42 | 1.94 | 2.3 | 3.41 | 1.92 | 4.33 | 9.5
Cc1ccccc1/C=C/c1csnn1 | > 100 | 79.7 | > 100 | > 100 | > 100 | > 100 | > 100 | > 100 | > 100 | > 100 | – | – | – | – | – | – | – | – | – | –
O/N=C1/CCCC/C1=C/C=C/c1ccccc1 | 67 | 71.7 | 62 | 54.9 | 34.1 | 75.3 | 32.9 | > 100 | 41 | 60.5 | – | – | – | – | – | – | – | – | – | –
Nc1n[n+]([O-])c2cc([N+](=O)[O-])ccc2[n+]1[O-] | 9.74 | > 100 | 86.1 | 44.6 | 4.25 | 83.4 | 10.1 | 18.4 | – | 35.7 | – | – | – | – | – | – | – | – | – | –
C=C1CCC2CC1C(C(=O)c1c[nH]c3ccccc13)=NC2(C)C (stereo not given) | > 100 | > 100 | – | > 100 | > 100 | > 100 | > 100 | > 100 | > 100 | > 100 | – | – | – | – | – | – | – | – | – | –
